Tests used:
[1] = target: T1, Glycine receptor subunit alpha-1 (Homo sapiens) (UniProt P23415); assay: Positive allosteric modulation of human glycine receptor alpha1 expressed in HEK293 cells assessed as potentiation of glycine-induced current response at 10 uM measure for 3 to 6 secs by whole cell patch-clamp method relative to glycine; format: cell-based
T1 sequence (whole entry): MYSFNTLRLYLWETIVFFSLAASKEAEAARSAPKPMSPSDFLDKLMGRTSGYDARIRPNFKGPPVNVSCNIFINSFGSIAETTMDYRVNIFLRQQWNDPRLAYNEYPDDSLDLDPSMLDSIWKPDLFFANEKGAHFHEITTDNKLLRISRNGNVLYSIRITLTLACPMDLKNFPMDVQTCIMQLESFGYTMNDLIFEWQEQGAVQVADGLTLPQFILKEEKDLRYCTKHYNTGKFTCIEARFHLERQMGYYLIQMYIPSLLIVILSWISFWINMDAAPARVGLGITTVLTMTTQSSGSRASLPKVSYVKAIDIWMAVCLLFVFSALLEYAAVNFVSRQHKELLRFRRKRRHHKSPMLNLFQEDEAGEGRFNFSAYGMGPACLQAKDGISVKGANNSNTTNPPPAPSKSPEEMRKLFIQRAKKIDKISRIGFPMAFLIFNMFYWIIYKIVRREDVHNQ

[2] = target: T2, Glycine receptor alpha-3/beta (Homo sapiens, UniProt O75311+P48167); assay: Positive allosteric modulation of human glycine alpha3beta receptor expressed in HEK293T cells assessed as potentiation of glycine-induced increase in current response after 18 to 24 hrs by membrane potential blue dye based FLIPR assay relative to glycine; format: cell-based
T2 sequence (O75311 whole entry): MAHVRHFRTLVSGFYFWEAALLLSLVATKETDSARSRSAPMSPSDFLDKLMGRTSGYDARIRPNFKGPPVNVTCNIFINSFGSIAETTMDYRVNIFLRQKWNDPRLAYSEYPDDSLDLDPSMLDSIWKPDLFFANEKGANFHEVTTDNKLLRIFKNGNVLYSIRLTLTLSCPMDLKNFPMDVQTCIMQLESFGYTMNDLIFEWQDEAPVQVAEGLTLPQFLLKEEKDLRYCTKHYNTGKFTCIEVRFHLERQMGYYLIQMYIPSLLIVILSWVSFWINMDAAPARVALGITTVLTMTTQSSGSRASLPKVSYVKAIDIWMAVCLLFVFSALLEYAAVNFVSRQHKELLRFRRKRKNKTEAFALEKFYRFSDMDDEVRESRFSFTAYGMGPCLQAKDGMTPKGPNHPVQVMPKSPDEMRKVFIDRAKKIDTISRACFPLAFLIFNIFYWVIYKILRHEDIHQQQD
T2 sequence (P48167 whole entry): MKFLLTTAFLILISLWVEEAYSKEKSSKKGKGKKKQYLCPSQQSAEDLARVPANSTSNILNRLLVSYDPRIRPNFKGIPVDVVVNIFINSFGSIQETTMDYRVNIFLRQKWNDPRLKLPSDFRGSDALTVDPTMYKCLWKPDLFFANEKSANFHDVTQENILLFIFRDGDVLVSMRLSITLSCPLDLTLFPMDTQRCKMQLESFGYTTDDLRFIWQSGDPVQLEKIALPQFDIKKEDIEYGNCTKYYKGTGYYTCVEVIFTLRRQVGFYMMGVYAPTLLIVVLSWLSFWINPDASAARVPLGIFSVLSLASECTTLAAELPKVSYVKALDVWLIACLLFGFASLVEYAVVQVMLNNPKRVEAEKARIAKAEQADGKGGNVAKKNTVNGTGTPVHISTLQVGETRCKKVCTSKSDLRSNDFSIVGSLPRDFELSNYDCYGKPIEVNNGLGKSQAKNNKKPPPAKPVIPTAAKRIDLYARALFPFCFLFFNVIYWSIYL

[3] = target: Glycine receptor (alpha-1/beta) (Homo sapiens, UniProt P23415+P48167); assay: Positive allosteric modulation of human glycine alpha1beta receptor expressed in HEK293T cells assessed as glycine-induced increase in current response after 18 to 24 hrs by membrane potential blue dye based FLIPR assay; format: cell-based
Chain of Glycine receptor (alpha-1/beta) (P48167 whole entry, one chain of several): as the sequence (P48167 whole entry) above

[4] = target: T2, Glycine receptor alpha-3/beta; assay: Positive allosteric modulation of human glycine alpha3beta receptor expressed in HEK293T cells assessed as glycine-induced increase in current response after 18 to 24 hrs by membrane potential blue dye based FLIPR assay; format: cell-based
[5] = target: T3, Glycine receptor subunit alpha-1 (Homo sapiens, UniProt P23415); assay: Positive allosteric modulation of human glycine alpha1 receptor expressed in HEK293T cells assessed as glycine-induced increase incurrent response after 18 to 24 hrs by membrane potential blue dye based FLIPR assay; format: cell-based
T3 sequence (P23415 whole entry): T1 sequence (whole entry)

[6] = target: T4, 5-hydroxytryptamine receptor 3A (Cavia porcellus, UniProt O70212); assay: Antagonist activity 5-HT3A receptor in guinea pig ileum assessed as inhibition of 2-methyl-5-HT induced response preincubated for 10 mins followed by agonist addition; conditions: read-out: pA2 (converted)
T4 sequence (O70212 whole entry): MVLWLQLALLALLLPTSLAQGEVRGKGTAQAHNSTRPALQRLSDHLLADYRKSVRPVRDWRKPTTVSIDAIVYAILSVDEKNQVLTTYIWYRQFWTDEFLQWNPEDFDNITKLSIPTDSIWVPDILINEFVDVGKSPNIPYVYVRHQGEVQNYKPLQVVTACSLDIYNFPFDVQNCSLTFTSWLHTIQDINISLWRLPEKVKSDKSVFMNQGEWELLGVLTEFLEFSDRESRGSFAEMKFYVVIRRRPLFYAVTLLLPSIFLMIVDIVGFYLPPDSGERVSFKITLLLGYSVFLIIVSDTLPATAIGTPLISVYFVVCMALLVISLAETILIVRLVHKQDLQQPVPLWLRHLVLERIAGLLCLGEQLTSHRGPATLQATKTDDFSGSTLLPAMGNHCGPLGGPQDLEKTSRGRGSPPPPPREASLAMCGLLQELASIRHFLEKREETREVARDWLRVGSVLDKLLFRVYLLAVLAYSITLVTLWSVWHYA

[7] = target: Neuronal acetylcholine receptor subunit alpha-7 (Rattus norvegicus, UniProt Q05941); assay: Agonist activity at rat brain membrane alpha7 nAChR
Chain of Neuronal acetylcholine receptor subunit alpha-7 (Q05941 whole entry): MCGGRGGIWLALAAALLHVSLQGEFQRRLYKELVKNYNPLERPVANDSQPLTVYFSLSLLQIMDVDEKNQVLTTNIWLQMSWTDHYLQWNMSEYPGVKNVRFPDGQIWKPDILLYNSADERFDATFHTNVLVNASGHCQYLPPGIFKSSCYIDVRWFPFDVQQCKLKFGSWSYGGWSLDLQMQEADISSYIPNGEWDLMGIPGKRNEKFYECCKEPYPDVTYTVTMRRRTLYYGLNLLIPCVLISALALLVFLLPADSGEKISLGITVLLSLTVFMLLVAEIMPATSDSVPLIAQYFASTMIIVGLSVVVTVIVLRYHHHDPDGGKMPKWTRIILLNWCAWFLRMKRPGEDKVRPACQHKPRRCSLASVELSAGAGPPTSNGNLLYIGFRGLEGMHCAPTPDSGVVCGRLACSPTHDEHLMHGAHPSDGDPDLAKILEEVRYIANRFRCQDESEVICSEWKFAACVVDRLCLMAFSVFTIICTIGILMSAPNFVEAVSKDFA

[8] = target: T5, 5-hydroxytryptamine receptor 3A (Homo sapiens, UniProt P46098); assay: Inhibition of recombinant human 5-HT3A receptor expressed in HEK293 cell membranes […] in presence of [3H]GR65630
T5 sequence (P46098 whole entry): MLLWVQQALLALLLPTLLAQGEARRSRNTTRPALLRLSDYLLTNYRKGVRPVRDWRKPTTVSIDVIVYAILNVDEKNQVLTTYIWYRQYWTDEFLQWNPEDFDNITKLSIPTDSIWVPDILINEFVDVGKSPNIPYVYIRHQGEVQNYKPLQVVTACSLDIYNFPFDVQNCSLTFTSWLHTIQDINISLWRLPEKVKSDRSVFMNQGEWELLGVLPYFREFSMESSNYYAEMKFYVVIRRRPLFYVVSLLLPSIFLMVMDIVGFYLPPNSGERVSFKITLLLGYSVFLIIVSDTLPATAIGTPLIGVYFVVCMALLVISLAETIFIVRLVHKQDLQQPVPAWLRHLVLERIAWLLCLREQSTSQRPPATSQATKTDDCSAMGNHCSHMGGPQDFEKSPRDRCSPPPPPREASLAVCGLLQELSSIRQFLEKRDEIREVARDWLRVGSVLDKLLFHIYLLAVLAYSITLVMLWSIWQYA

[9] = target: Neuronal acetylcholine receptor; alpha3/beta2 (Homo sapiens) (UniProt P17787+P32297); assay: Positive allosteric modulation of human alpha3beta2 nAChR expressed Xenopus oocytes at 3 uM relative to acetylcholine; format: protein-complex assay
[10] = target: Glycine receptor (Rattus norvegicus) (UniProt P22771+P24524+P07727+P20781); assay: Positive allosteric modulation of OFA rat embryonic ventral spinal cord neuron glycine receptor assessed as potentiation of glycine-induced chloride current at 1 to 10 uM by whole cell patch-clamp method relative to 10 uM glycine; format: protein-complex assay
Chain of Glycine receptor (Rattus norvegicus) (P07727 whole entry, looked up): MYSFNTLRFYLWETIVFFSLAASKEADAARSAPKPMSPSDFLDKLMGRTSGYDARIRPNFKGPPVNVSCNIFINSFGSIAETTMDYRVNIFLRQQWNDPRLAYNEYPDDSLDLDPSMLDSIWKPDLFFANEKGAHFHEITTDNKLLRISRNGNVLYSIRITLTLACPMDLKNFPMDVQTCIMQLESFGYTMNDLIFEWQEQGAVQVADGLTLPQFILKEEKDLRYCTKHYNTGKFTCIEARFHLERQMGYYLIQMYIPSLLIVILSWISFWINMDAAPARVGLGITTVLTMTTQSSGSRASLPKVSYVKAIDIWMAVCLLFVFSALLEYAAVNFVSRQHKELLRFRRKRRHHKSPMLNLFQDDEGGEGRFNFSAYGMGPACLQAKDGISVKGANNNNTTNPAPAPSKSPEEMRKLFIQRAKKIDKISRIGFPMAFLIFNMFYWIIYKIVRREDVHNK
Chain of Glycine receptor (Rattus norvegicus) (P20781 whole entry, looked up): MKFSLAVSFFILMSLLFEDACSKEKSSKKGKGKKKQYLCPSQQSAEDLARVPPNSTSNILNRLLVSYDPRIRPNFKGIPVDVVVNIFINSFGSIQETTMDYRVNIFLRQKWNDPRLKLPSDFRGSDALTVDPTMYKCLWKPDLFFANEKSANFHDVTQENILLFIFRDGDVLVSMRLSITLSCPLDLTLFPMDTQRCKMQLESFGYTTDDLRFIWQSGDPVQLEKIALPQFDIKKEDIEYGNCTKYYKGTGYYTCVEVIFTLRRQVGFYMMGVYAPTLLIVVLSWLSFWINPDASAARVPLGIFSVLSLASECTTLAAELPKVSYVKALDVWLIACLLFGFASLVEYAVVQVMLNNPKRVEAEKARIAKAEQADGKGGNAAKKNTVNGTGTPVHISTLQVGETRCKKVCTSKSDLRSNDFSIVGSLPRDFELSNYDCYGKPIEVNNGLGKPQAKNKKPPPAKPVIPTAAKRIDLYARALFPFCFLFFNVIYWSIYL
Chain of Glycine receptor (Rattus norvegicus) (P22771 whole entry, looked up): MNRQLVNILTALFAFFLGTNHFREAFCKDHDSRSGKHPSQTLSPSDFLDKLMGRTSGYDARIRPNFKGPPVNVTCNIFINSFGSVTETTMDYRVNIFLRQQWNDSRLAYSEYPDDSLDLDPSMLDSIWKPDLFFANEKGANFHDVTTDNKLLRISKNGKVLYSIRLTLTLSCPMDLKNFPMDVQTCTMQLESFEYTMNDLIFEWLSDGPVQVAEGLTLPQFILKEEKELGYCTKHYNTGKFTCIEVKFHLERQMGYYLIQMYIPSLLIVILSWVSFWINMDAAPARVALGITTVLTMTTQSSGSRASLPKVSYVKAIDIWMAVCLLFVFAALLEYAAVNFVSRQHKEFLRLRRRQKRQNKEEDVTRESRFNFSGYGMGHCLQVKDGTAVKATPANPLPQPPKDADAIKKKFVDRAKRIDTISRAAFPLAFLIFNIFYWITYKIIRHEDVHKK
Chain of Glycine receptor (Rattus norvegicus) (P24524 whole entry, looked up): as the sequence (O75311 whole entry) above, with V11L, D32N, M372T, F381L, M398V, T399V, P406A, P414A, Q461H counted along it

[11] = target: T6, Serotonin 3 (5-HT3) receptor (Homo sapiens, UniProt O95264+P46098); assay: Agonist activity at human […] receptor expressed in Xenopus laevis oocytes; format: cell-based
T6 sequence (P46098 whole entry): T5 sequence (P46098 whole entry)
T6 sequence (O95264 whole entry): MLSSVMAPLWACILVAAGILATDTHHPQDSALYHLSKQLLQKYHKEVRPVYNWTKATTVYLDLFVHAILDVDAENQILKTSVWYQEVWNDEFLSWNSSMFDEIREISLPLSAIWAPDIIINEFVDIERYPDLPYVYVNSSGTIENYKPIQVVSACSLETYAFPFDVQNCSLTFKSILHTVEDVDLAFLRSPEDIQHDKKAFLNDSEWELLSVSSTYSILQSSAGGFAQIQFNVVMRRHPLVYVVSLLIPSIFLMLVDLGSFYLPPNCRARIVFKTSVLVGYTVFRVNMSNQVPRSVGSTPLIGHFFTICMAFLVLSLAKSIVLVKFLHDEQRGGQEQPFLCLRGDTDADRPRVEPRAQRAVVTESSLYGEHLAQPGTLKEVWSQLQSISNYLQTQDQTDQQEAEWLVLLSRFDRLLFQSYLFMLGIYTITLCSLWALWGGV

[12] = target: T5, 5-hydroxytryptamine receptor 3A; assay: Agonist activity at human […] receptor expressed in Xenopus laevis oocytes; format: cell-based
[13] = target: T6, Serotonin 3 (5-HT3) receptor; assay: Displacement of [3H]granisetron from human 5-HT3AB receptor expressed in HEK293 cells by scintillation counting method; format: cell-based
[14] = target: T5, 5-hydroxytryptamine receptor 3A; assay: Displacement of [3H]granisetron from human 5-HT3A receptor expressed in HEK293 cells by scintillation counting method; format: cell-based
[15] = target: T5, 5-hydroxytryptamine receptor 3A; assay: Inhibition of human 5-HT3A receptor expressed in […] cells after 30 mins by Fluo-4-AM dye based FLIPR assay; format: cell-based
[16] = target: T6, Serotonin 3 (5-HT3) receptor; assay: Inhibition of human 5-HT3AB receptor expressed in […] cells after 30 mins by Fluo-4-AM dye based FLIPR assay; format: cell-based
[17] = target: 5-hydroxytryptamine receptor 3A/3C (Homo sapiens, UniProt P46098+Q8WXA8); assay: Inhibition of human 5-HT3AC receptor expressed in […] cells after 30 mins by Fluo-4-AM dye based FLIPR assay; format: cell-based
Chain of 5-hydroxytryptamine receptor 3A/3C (Q8WXA8 whole entry, one chain of several): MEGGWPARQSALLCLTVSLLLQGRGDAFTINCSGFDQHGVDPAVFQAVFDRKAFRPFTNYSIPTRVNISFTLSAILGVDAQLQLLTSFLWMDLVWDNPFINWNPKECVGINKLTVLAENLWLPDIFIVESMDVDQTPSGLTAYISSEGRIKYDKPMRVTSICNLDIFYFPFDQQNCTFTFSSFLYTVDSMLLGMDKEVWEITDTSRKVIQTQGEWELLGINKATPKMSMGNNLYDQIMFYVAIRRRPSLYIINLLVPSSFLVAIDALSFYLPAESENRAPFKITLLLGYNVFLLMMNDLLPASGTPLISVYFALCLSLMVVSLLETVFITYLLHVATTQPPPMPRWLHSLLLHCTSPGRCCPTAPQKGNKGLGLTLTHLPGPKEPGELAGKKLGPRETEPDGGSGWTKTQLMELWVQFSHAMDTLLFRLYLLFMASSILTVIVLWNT

[18] = target: 5-hydroxytryptamine receptor 3A/3E (Homo sapiens, UniProt A5X5Y0+P46098); assay: Inhibition of human 5-HT3AE receptor expressed in […] cells after 30 mins by Fluo-4-AM dye based FLIPR assay; format: cell-based
Chain of 5-hydroxytryptamine receptor 3A/3E (A5X5Y0 whole entry, one chain of several): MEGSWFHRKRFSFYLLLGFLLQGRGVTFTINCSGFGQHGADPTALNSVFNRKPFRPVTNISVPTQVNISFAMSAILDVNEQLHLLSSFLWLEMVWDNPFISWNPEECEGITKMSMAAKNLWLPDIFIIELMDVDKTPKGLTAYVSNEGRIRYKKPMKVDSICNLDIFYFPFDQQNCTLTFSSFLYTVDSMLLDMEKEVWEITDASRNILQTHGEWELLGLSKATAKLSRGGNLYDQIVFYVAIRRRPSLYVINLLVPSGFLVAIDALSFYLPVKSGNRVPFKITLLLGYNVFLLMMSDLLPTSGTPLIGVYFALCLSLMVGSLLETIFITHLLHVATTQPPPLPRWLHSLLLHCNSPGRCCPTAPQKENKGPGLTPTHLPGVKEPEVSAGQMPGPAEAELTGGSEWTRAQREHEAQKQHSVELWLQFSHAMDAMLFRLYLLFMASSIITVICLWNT

[19] = target: Gamma-aminobutyric acid receptor subunit alpha-1/beta-2 (Rattus norvegicus) (UniProt P62813+P63138); conditions: HEK293, 30 uM
Description: Positive allosteric modulation of recombinant rat GABAA receptor alpha1beta2 expressed in HEK293 cells assessed as increase in GABA-induced current at 30 uM at -100 mV holding potential measured for 1 to 2 secs for every 60 secs by whole cell patch-clamp method relative to GABA

[20] = target: T1, Glycine receptor subunit alpha-1 (Homo sapiens); conditions: HEK293, 30 uM
Description: Positive allosteric modulation of recombinant human glycine receptor alpha1 expressed in HEK293 cells assessed as increase in glycine-induced current at 30 uM at -60 mV holding potential measured for 1 to 2 secs for every 60 secs by whole cell patch-clamp method relative to glycine

[21] = target: GABA-A receptor; alpha-1/beta-3/gamma-2 (Homo sapiens) (UniProt P14867+P18507+P28472); assay: Positive allosteric modulation of recombinant human GABAA receptor alpha1beta3gamma2 expressed in Xenopus oocytes assessed as potentiation of GABA induced chloride current response relative to 10 uM GABA; format: cell-based
[22] = target: GABA A receptor alpha-4/beta-3/gamma-2 (Homo sapiens, UniProt P18507+P28472+P48169); assay: Positive allosteric modulation of recombinant human GABAA receptor alpha4beta3gamma2 expressed in Xenopus oocytes assessed as potentiation of GABA induced chloride currents relative to 10 uM GABA; format: cell-based
[23] = target: Gamma-aminobutyric acid receptor subunit alpha-5/beta-3 (Homo sapiens) (UniProt P28472+P31644); assay: Positive allosteric modulation of recombinant human GABAA receptor alpha5beta3 expressed in Xenopus oocytes assessed as potentiation of GABA induced chloride current response relative to GABA; format: cell-based
[24] = target: GABA-A receptor; alpha-6/beta-3/gamma-2 (Homo sapiens) (UniProt P18507+P28472+Q16445); assay: Positive allosteric modulation of recombinant human GABAA receptor alpha6beta3gamma2 expressed in Xenopus oocytes assessed as potentiation of GABA induced chloride currents relative to 10 uM GABA; format: cell-based
[25] = target: GABA-A receptor alpha-1/beta-3 (Homo sapiens) (UniProt P14867+P28472); assay: Positive allosteric modulation of recombinant human GABAA receptor alpha1beta3 expressed in Xenopus oocytes assessed as potentiation of GABA induced chloride current response relative to GABA; format: cell-based
[26] = target: Gamma-aminobutyric acid receptor subunit alpha-3/beta-3 (Homo sapiens) (UniProt P28472+P34903); assay: Positive allosteric modulation of recombinant human GABAA receptor alpha3beta3 expressed in Xenopus oocytes assessed as potentiation of GABA induced chloride current response relative to GABA; format: cell-based
[27] = target: GABA-A receptor; alpha-5/beta-3/gamma-2 (Homo sapiens) (UniProt P18507+P28472+P31644); assay: Positive allosteric modulation of recombinant human GABAA receptor alpha5beta3gamma2 expressed in Xenopus oocytes assessed as potentiation of GABA induced chloride currents relative to 10 uM GABA; format: cell-based
[28] = target: GABA-A receptor; alpha-3/beta-3/gamma-2 (Homo sapiens) (UniProt P18507+P28472+P34903); assay: Positive allosteric modulation of recombinant human GABAA receptor alpha3beta3gamma2 expressed in Xenopus oocytes assessed as potentiation of GABA induced chloride currents relative to 10 uM GABA; format: cell-based
[29] = target: GABA-A receptor; alpha-2/beta-3/gamma-2 (Homo sapiens) (UniProt P18507+P28472+P47869); assay: Positive allosteric modulation of recombinant human GABAA receptor alpha2beta3gamma2 expressed in Xenopus oocytes assessed as potentiation of GABA induced chloride currents relative to 10 uM GABA; format: cell-based
[30] = target: Gamma-aminobutyric acid receptor subunit alpha-2/beta-3 (Homo sapiens) (UniProt P28472+P47869); assay: Positive allosteric modulation of recombinant human GABAA receptor alpha2beta3 expressed in Xenopus oocytes assessed as potentiation of GABA induced chloride current response relative to GABA; format: cell-based

CCCCCc1ccc2c(c1)OC(C)(C)[C@@H]1CCC(C)=C[C@@H]21
fold change (FC) [1]: 30

CN1C(=O)[C@@H]2CN(S(=O)(=O)c3ccc4occc4c3)C[C@@H]2c2cnccc21
fold change (FC) [2]: 16 | EC50 [3]: 171 nM | EC50 [4]: 330 nM | EC50 [5]: 327 nM

COc1nc2ccccc2nc1C(=O)Nc1nc2ccccc2s1
Kb [6]: 39.8 nM

O=C(N[C@H]1CN2CCC1CC2)c1ccc2ncccc2c1
IC50 [7]: 10000 nM | IC50 [8]: 150 nM

O=C(c1cnc2ccccc2n1)N1CCN(Cc2ccccc2)CC1
Kb [6]: 15.8 nM

Clc1ccccc1CN[C@@H]1CN2CCC1CC2
fold change (FC) [9]: 3

CN1[C@@H]2CC[C@H]1C[C@@H](NC(=O)c1nn(C)c3ccccc13)C2
fold change (FC) [10]: 1.73

N=C(N)NC(=N)Nc1cccc(Cl)c1
EC50 [11]: 2800 nM | EC50 [12]: 3800 nM

CN1CCN(c2nc3ccccc3nc2Cl)CC1
Ki [13]: 22 nM | Ki [14]: 0.04 nM

c1ccc2c(CSc3[nH]cnc4ncnc3-4)cccc2c1
IC50 [15]: 620 nM | IC50 [16]: 430 nM | IC50 [17]: 840 nM | IC50 [18]: 710 nM

COc1nc2ccccc2nc1C(=O)Nc1ccc(C)cc1
Kb [6]: 50.1 nM

CCCCNC(=O)c1nc2ccccc2nc1OC
Kb [6]: 20 nM

CC(C)c1cccc(C(C)C)c1O
Emax [19]: 279% | Emax [20]: 189%

O=C1C=C[C@H]([C@H]2c3cccc([N+](=O)[O-])c3C=CN2C(=O)OCc2ccccc2)O1
fold change (FC) [21]: 2.6 | fold change (FC) [22]: 1.4 | fold change (FC) [23]: 1.4 | fold change (FC) [24]: 2.9 | fold change (FC) [25]: 1.4 | fold change (FC) [26]: 1.4 | fold change (FC) [27]: 1.4 | fold change (FC) [28]: 2.9 | fold change (FC) [29]: 2.1 | fold change (FC) [30]: 1.8
